Among the data in US8163793B2, “Proline derivatives” (Hoffman-La Roche Inc., priority 2009, dated 2012) are IC50 values, retold here.

Structures can show the parent of a compound that is named as a salt.

Test [1] addresses Cathepsin S (UniProt P25774). The test is described as follows: Cathepsin enzyme inhibition assay (fluorogenic peptide substrate Z-Val-Val-Arg-AMC), Cathepsin S. It counts as biochemical, human and mouse. The following applies: enzyme 1 nM, substrate 20 μM, pH 6.5; read-out: CatS IC50. Put shortly: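 Compounds were combined with 1 nM human or mouse enzyme, and substrate then started the reaction. The buffer was potassium phosphate (100 mM, pH 6.5) containing EDTA-Na 5 mM, Triton X-100 0.001% and […] 5 mM.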

The target in test [2] is Cat L (UniProt P07711). The experiment in a line: Cathepsin enzyme inhibition assay (fluorogenic peptide substrate Z-Val-Val-Arg-AMC), Cathepsin L. It counts as biochemical, human and mouse. As to conditions: enzyme 1 nM, substrate 20 μM, pH 6.5; read-out: CatL IC50. An outline of the steps: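 Fluorogenic cleavage of Z-Val-Val-Arg-AMC (20 μM) by 1 nM Cat L was monitored at ex 360/em 465 nm for 20 min, the linear phase. The buffer was 100 mM potassium phosphate pH 6.5 with 5 mM EDTA and DTT. IC50 values were derived by standard methods, in μM.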

One may read the IC50 as the concentration at which inhibition is half-maximal. With `CC(C)(C)OC(=O)N1C[C@H](S(=O)(=O)c2ccc(Br)cc2C(F)(F)F)C[C@H]1C(=O)NC1(C#N)CC1` [Example 7, (2S,4R)-4-(4-Bromo-2-trifluoromethyl-benzenesulfonyl)-2-(1-cyano-cyclopropylcarbamoyl)-pyrrolidine-1-carboxylic acid tert-butyl ester], the values for the IC50 in test [1] and in test [2] were 2.7 nM and at least 25000 nM, respectively.

On to `Cc1cc(N2C[C@H](S(=O)(=O)c3ccccc3C(F)(F)F)C[C@H]2C(=O)NC2(C#N)CC2)n(-c2ccccc2)n1` [Example 192, (2S,4R)-1-(5-Methyl-2-phenyl-2H-pyrazol-3-yl)-4-(2-trifluoromethyl-benzenesulfonyl)-pyrrolidine-2-carboxylic acid (1-cyano-cyclopropyl)-amide], for which the values for the concentration for half-maximal inhibition (IC50) in test [1] and in test [2] were 0.5 nM and 43700 nM, respectively.

With `CC(C)(C)C(=O)N1C[C@H](S(=O)(=O)c2ccc(Cl)cc2Cl)C[C@H]1C(=O)NC1(C#N)CC1` [Example 225, (2S,4R)-4-(2,4-Dichloro-benzenesulfonyl)-1-(2,2-dimethyl-propionyl)-pyrrolidine-2-carboxylic Acid (1-cyano-cyclopropyl)-amide], the half-maximal inhibitory concentration (IC50) worked out at 1.2 nM in test [1] and 18300 nM in test [2].

Turning to `CN1CCN(c2ccc(S(=O)(=O)[C@H]3CN[C@H](C(=O)NC4(C#N)CC4)C3)c(C(F)(F)F)c2)CC1` [Example 21, (2S,4R)-4-[4-(4-Methyl-piperazin-1-yl)-2-trifluoromethyl-benzenesulfonyl]-pyrrolidine-2-carboxylic acid (1-cyano-cyclopropyl)-amide hydrochloride], the half-maximal inhibitory concentration (IC50) in test [1] was found to be 0.8 nM; in test [2], 40800 nM.

Consider `COc1ccc(S(=O)(=O)[C@@H]2C[C@@H](C(=O)NC3(C#N)CC3)N(c3cc(C)nn3Cc3ccccc3)C2)c(Cl)c1` [Example 376, (2S,4R)-1-(2-Benzyl-5-methyl-2H-pyrazol-3-yl)-4-(2-chloro-4-methoxy-benzenesulfonyl)-pyrrolidine-2-carboxylic acid (1-cyano-cyclopropyl)-amide], for which the 50% inhibitory concentration (IC50) in test [1] was found to be 0.657 nM; in test [2], 1760 nM.

For the compound `N#CC1(NC(=O)[C@@H]2C[C@@H](S(=O)(=O)c3ccc(OCC(F)(F)F)cc3Cl)CN2C(=O)C2(c3ccc(C(N)=O)cc3)CC2)CC1` [Example 277, (2S,4R)-1-[1-(4-Carbamoyl-phenyl)-cyclopropanecarbonyl]-4-[2-chloro-4-(2,2,2-trifluoro-ethoxy)-benzenesulfonyl]-pyrrolidine-2-carboxylic acid (1-cyano-cyclopropyl)-amide], the figures for the IC50 in test [1] and in test [2] were 0.14 nM and 445 nM, respectively.

On to `Cc1cc(N2C[C@H](S(=O)(=O)c3ccccc3C(F)(F)F)C[C@H]2C(=O)NC2(C#N)CC2)n(CC(C)C)n1` [Example 340, (2S,4R)-1-(2-Isobutyl-5-methyl-2H-pyrazol-3-yl)-4-(2-trifluoromethyl-benzenesulfonyl)-pyrrolidine-2-carboxylic acid (1-cyano-cyclopropyl)-amide], for which the half-inhibitory concentration (IC50) came out at 0.975 nM in test [1] and 26400 nM in test [2].

With `Cc1cc(N2C[C@H](S(=O)(=O)c3ccccc3Cl)C[C@H]2C(=O)NC2(C#N)CC2)n(CCCc2ccccc2)n1` [Example 474, (2S,4R)-4-(2-Chloro-benzenesulfonyl)-1-[5-methyl-2-(3-phenyl-propyl)-2H-pyrazol-3-yl]-pyrrolidine-2-carboxylic acid (1-cyano-cyclopropyl)-amide], the half-inhibitory concentration (IC50) in test [1] is 2.4 nM; in test [2], 1540 nM.

Consider `N#CC1(NC(=O)[C@@H]2C[C@@H](S(=O)(=O)c3ccccc3C(F)(F)F)CN2c2ccc(F)c(Cl)c2)CC1` [Example 394, (2S,4R)-1-(3-Chloro-4-fluoro-phenyl)-4-(2-trifluoromethyl-benzenesulfonyl)-pyrrolidine-2-carboxylic acid (1-cyano-cyclopropyl)-amide], for which the IC50 in test [1] is 2.95 nM; in test [2], at least 25000 nM.

On to `Cc1cc(N2C[C@H](S(=O)(=O)c3ccccc3C(F)(F)F)C[C@H]2C(=O)NC2(C#N)CC2)n(-c2cccc(Cl)c2)n1` [Example 233, (2S,4R)-1-[2-(3-Chloro-phenyl)-5-methyl-2H-pyrazol-3-yl]-4-(2-trifluoromethyl-benzenesulfonyl)-pyrrolidine-2-carboxylic acid (1-cyano-cyclopropyl)-amide], for which the concentration for half-maximal inhibition (IC50) stood at 0.465 nM in test [1] and 21100 nM in test [2].

In the case of `N#CC1(NC(=O)[C@@H]2C[C@@H](S(=O)(=O)c3ccc(F)cc3C(F)(F)F)CN2C(=O)C2(C(F)(F)F)CC2)CC1` [Example 209, (2S,4R)-4-(4-Fluoro-2-trifluoromethyl-benzenesulfonyl)-1-(1-trifluoromethyl-cyclopropanecarbonyl)-pyrrolidine-2-carboxylic acid (1-cyano-cyclopropyl)-amide], the concentration for half-maximal inhibition (IC50) in test [1] is 0.2 nM; in test [2] it was at least 25000 nM.

Turning to `CN1C[C@H](S(=O)(=O)c2ccccc2Cl)C[C@H]1C(=O)N(C)C1(C#N)CC1` [Example 94, (2S,4R)-4-(2-Chloro-benzenesulfonyl)-1-methyl-pyrrolidine-2-carboxylic acid (1-cyano-cyclopropyl)-methyl-amide Formiate], the concentration for half-maximal inhibition (IC50) in test [1] was found to be 945 nM; in test [2], 40000 nM.

As for `N#CC1(NC(=O)[C@@H]2C[C@@H](S(=O)(=O)c3ccc(OCC(F)(F)F)cc3Cl)CN2C(=O)C2(c3ccccc3)CCCCC2)CC1` [Example 303, (2S,4R)-4-[2-Chloro-4-(2,2,2-trifluoro-ethoxy)-benzenesulfonyl]-1-(1-phenyl-cyclohexanecarbonyl)-pyrrolidine-2-carboxylic acid (1-cyano-cyclopropyl)-amide], the half-inhibitory concentration (IC50) in test [1] was found to be 0.03 nM; in test [2], 1480 nM.

Regarding `Cc1ccc(=O)n(-c2ccc(S(=O)(=O)[C@H]3CN[C@H](C(=O)NC4(C#N)CC4)C3)c(C(F)(F)F)c2)n1` [Example 23, (2S,4R)-4-[4-(3-M ethyl-6-oxo-6H-pyridazin-1-yl)-2-trifluoromethyl-benzenesulfonyl]-pyrrolidine-2-carboxylic acid (1-cyano-cyclopropyl)-amide hydrochloride], the IC50 is 0.9 nM in test [1] and at least 25000 nM in test [2].

As for `Cc1cc(N2C[C@H](S(=O)(=O)c3ccccc3C(F)(F)F)C[C@H]2C(=O)NC2(C#N)CC2)n(C2CCN(C(=O)OCc3ccccc3)CC2)n1` [Example 406, 4-{5-[(2S,4R)-2-(1-Cyano-cyclopropylcarbamoyl)-4-(2-trifluoromethyl-benzenesulfonyl)-pyrrolidin-1-yl]-3-methyl-pyrazol-1-yl}-piperidine-1-carboxylic acid Benzyl Ester], the half-inhibitory concentration (IC50) in test [1] was 4 nM; in test [2] it was at least 25000 nM.

Turning to `CC(C)(C)OC(=O)N1C[C@H](S(=O)(=O)c2ccc(N3CCC(F)(F)C3)cc2Cl)C[C@H]1C(=O)NC1(C#N)CC1` [Example 130, (2S,4R)-4-[2-Chloro-4-(3,3-difluoro-pyrrolidin-1-yl)-benzenesulfonyl]-2-(1-cyano-cyclopropylcarbamoyl)-pyrrolidine-1-carboxylic acid tert.-butyl ester], the half-maximal inhibitory concentration (IC50) is 2.4 nM in test [1] and at least 25000 nM in test [2].

As for `CC(Oc1ccc(S(=O)(=O)[C@H]2CN[C@H](C(=O)NC3(C#N)CC3)C2)c(Cl)c1)C(F)(F)F` (stereo partly drawn) [Example 129, (2S,4R)-4-[2-Chloro-4-(2,2,2-trifluoro-1-methyl-ethoxy)-benzenesulfonyl]-pyrrolidine-2-carboxylic acid (1-cyano-cyclopropyl)-amide], the half-inhibitory concentration (IC50) in test [1] was 8 nM; in test [2] it was 20400 nM.

In the case of `CC(C)(C)OC(=O)N1C[C@H](S(=O)(=O)c2ccccc2Cl)C[C@H]1C(=O)NC(C#N)c1ccccc1` (stereo partly drawn) [Example 36, (2S,4R)-4-(2-Chloro-benzenesulfonyl)-2-[(cyano-phenyl-methyl)-carbamoyl]-pyrrolidine-1-carboxylic acid tert-butyl ester], the half-inhibitory concentration (IC50) in test [1] worked out at 0.5 nM; in test [2], 1270 nM.

Turning to `N#Cc1cccc(N2CC(S(=O)(=O)c3ccccc3C(F)(F)F)CC2C(=O)NC2(C#N)CC2)c1` (stereo not shown) [Example 358, 1-(3-Cyano-phenyl)-4-(2-trifluoromethyl-benzenesulfonyl)-pyrrolidine-2-carboxylic acid (1-cyano-cyclopropyl)-amide], the IC50 was 0.5 nM in test [1] and at least 25000 nM in test [2].

With `N#CC1(NC(=O)[C@@H]2C[C@@H](S(=O)(=O)c3ccccc3Cl)CN2C2CCCCC2)CC1` [Example 85, (2S,4R)-4-(2-Chloro-benzenesulfonyl)-1-cyclohexyl-pyrrolidine-2-carboxylic acid (1-cyano-cyclopropyl)-amide], the IC50 in test [1] is 9.4 nM; in test [2] it was at least 25000 nM.

As to `N#CCNC(=O)[C@@H]1C[C@@H](S(=O)(=O)c2ccccc2Cl)CN1C(c1ccccc1)C(F)(F)F` (stereo partly drawn) [Example 57, (2S,4R)-4-(2-Chloro-benzenesulfonyl)-1-(2,2,2-trifluoro-1-phenyl-ethyl)-pyrrolidine-2-carboxylic acid cyanomethyl-amide], the half-maximal inhibitory concentration (IC50) in test [1] was 14.3 nM; in test [2], 17000 nM.

Take `CC(C)(C)OC(=O)N1C[C@H](S(=O)(=O)c2ccccc2Cl)C[C@H]1C(=O)NC1(C#N)CCCCC1` [Example 35, (2S,4R)-4-(2-Chloro-benzenesulfonyl)-2-(1-cyano-cyclohexylcarbamoyl)-pyrrolidine-1-carboxylic acid tert-butyl ester]: the IC50 in test [1] was 4100 nM; in test [2], at least 25000 nM.

For the compound `N#CC1(NC(=O)[C@@H]2C[C@@H](S(=O)(=O)c3ccc(N4CCC(C(F)(F)F)CC4)cc3Cl)CN2)CC1` [Example 154, (2S,4R)-4-[2-Chloro-4-(4-trifluoromethyl-piperidin-1-yl)-benzenesulfonyl]-pyrrolidine-2-carboxylic acid (1-cyano-cyclopropyl)-amide], the IC50 in test [1] was 1.8 nM; in test [2], 6630 nM.
